According to the NIST ThermoML archive (doi:10.1016/j.jct.2006.09.010):
± gives the expanded uncertainty stated by the source.

Settings: Liquid

FC(F)C(F)(F)F [pentafluoroethane]
vapor or sublimation pressure (313.15 K): 2008 ± 38 kPa
vapor or sublimation pressure (323.15 K): 2535 ± 48 kPa
vapor or sublimation pressure (333.15 K): 3171 ± 59 kPa
